Consider five sequences from US8067535B2 (priority 2003, dated 2011).

Experiment [1] relates to vaccinia virus-specific CD8^+ CTL lines. The experiment is classed as cell-based, human.
The test system of experiment [2] is CD8^+ T cells in PBMCs of HLA-A0201-positive donors. Type of experiment: cell-based, human.

For TVADVRHCL [peptide B7080], the “recognition by CTL line” value in experiment [1] is “recognized”.
Consider KVDDTFYYV [peptide 165], for which, in experiment [1], the “recognition by CTL line” value was “recognized” and the “specific recognition of epitope peptide by CTL line” value is on record as “high level of specific recognition”. In experiment [2], the “kinetics of the frequency of epitope-specific CD8^+ T cells: peak” value is recorded as “peaked two weeks after primary immunization” and the “kinetics of the frequency of epitope-specific CD8^+ T cells: persistence” value is “still detectable one to three years following primary immunization”.
For CLTEYILWV [peptide 74A], in that order: “recognized”, “high level of specific recognition”, “peaked two weeks after primary immunization” and “still detectable one to three years following primary immunization”.
For LLYAHINAL [peptide 029D], in experiment [1], the “recognition by CTL line” value is reported as “recognized”.
Still for that read-out and setting: with MPAYIRNTL [peptide B7034] the entry was “recognized”.
